# Data reported in patent publication US8697699B2, “Imidazopyrazine SYK inhibitors” (Gilead Connecticut, Inc., priority 2008, dated 2014).
# Counter-ions that a name gives are not always drawn.
row,melting point [°C],Compound
1,188 to 215,"COc1ccc(Nc2nc(-c3cccc(C(=O)Nc4ccc(C(=O)O)cc4C)c3)cn3ccnc23)cc1OC (as salt: hydrochloride) [Example 2, 4-(3-(8-(3,4-dimethoxyphenylamino)imidazo[1,2-a]pyrazin-6-yl)benzamido)-3-methylbenzoic acid hydrochloride salt]"
2,154 to 160,"COc1ccc(Nc2nc(-c3cccc(C(=O)Nc4ccc(C(=O)OCc5ccccc5)cc4)c3)cn3ccnc23)cc1OC [Example 3, benzyl 4-(3-(8-(3,4-dimethoxyphenylamino)imidazo[1,2-a]pyrazin-6-yl)benzamido)benzoate]"
